Measurements reported in ChEMBL document CHEMBL5678816, “A Next-Generation TRK Kinase Inhibitor Overcomes Acquired Resistance to Prior TRK Kinase Inhibition in Patients with TRK Fusion-Positive Solid Tumors” (Cancer Discov, 2017).
Active and inactive are the calls of the source. The calls are words filed in the database; no cut-off is given here.

Experiments:
[1] = Inhibition of human extracellular domain deleted TRKA G667S mutant expressed in mouse NIH3T3 cells assessed as reduction in TRKA phosphorylation incubated for 1 hrs by ELISA; format: cell-based; conditions: NIH3T3, 1 h
[2] = Inhibition of N-terminal 6His-tagged TRKC G696A mutant (506 to 829 residues) (unknown origin) expressed in Escherichia coli incubated for 60 mins by [gamma-33P]-ATP based TopCount NXT liquid scintillation assay; set-up: species or system Homo sapiens
[3] = Inhibition of N-terminal 3FLAG-tagged ETV6-TRKC G623R mutant (unknown origin) expressed in NIH3T3 cells assessed as ERK1/2 phosphorylation incubated for 1 hrs by flow cytometric analysis; format: cell-based, Homo sapiens
KM12 = assay: Antitumor activity against human KM12 cells harboring TPM3-TRKA fusion protein xenografted in nu/nu NCr mouse assessed as inhibition of tumor growth at 60 mg/kg, po administered once daily for 11 days; format: functional, organism-based; conditions: time 11.0 day
[4] = Toxicity in nu/nu NCr mouse implanted with mouse NIH3T3 cells harboring extracellular domain deleted TRKA G595R mutant assessed as body weight loss at 60 mg/kg, po administered once daily for 12 days relative to control; format: organism-based; conditions: in vivo, 288 h, time 12 day
NIH3T3 [5] = assay: In vivo inhibition of […] in nu/nu NCr mouse implanted with mouse NIH3T3 cells harboring extracellular domain deleted […] assessed as reduction in […] phosphorylation at 60 mg/kg, po administered once daily for 3 days and measured after 2 hrs post last dose by ELISA; format: functional, organism-based; conditions: time 3.0 day
[6] = Inhibition of human extracellular domain deleted TRKA V573M mutant expressed in mouse NIH3T3 cells assessed as reduction in TRKA phosphorylation incubated for 1 hrs by ELISA; format: cell-based; conditions: NIH3T3, 1 h
[7] = Inhibition of N-terminal 3FLAG-tagged wild type ETV6-TRKC (unknown origin) expressed in NIH3T3 cells assessed as ERK1/2 phosphorylation incubated for 1 hrs by flow cytometric analysis; format: cell-based, Homo sapiens
NIH3T3 [8] = assay: Antitumor activity against mouse NIH3T3 cells harboring extracellular domain deleted TRKA implanted in nu/nu NCr mouse assessed as inhibition of tumor growth at 60 mg/kg, po administered once daily for 10 days; format: functional, organism-based; conditions: time 10.0 day
[9] = Toxicity in nu/nu NCr mouse implanted with mouse NIH3T3 cells harboring extracellular domain deleted TRKA assessed as body weight loss at 60 mg/kg, po administered once daily for 10 days relative to control; format: organism-based; conditions: in vivo, 240 h, time 10 day
[10] = Toxicity in nu/nu NCr mouse xenografted with human KM12 cells harboring TPM3-TRKA fusion protein assessed as body weight loss at 60 mg/kg, po administered once daily for 11 days relative to control; format: organism-based; conditions: in vivo, 264 h, time 11 day
[11] = Inhibition of N-terminal 3FLAG-tagged ETV6-TRKC G696A mutant (unknown origin) expressed in NIH3T3 cells assessed as ERK1/2 phosphorylation incubated for 1 hrs by flow cytometric analysis; format: cell-based, Homo sapiens
NIH3T3 [12] = assay: In vivo inhibition of […] in nu/nu NCr mouse implanted with mouse NIH3T3 cells harboring extracellular domain deleted […] assessed as reduction in […] phosphorylation at 10 to 100 mg/kg, po administered twice daily for 3 days and measured after 2 hrs post last dose by ELISA; format: functional, organism-based; conditions: dose 10-100 mg/kg, time 3.0 day

IC50 [1]: 0.07 µM | IC50 [2]: 0.0045 µM | IC50 [3]: > 10 µM | IC50 [6]: 1.02 µM | IC50 [7]: 0.0188 µM | IC50 [11]: 0.172 µM
SMILES: O=C(Nc1cnn2ccc(N3CCC[C@@H]3c3cc(F)ccc3F)nc12)N1CC[C@H](O)C1 [LAROTRECTINIB]
Activity (KM12): Active | Activity [4]: < 5% | inhibition (NIH3T3 [5]): Active | Activity (NIH3T3 [8]): Active | Activity [9]: < 5% | Activity [10]: < 5% | inhibition (NIH3T3 [12]): Active
